According to patent US11466020B2, “Compounds and compositions for inhibition and elimination of Zika infection and uses for same” (Cornell University, priority 2017, dated 2022):

Legend:
[1] = tested on: ZIKV MR766; assay: Inhibition of ZIKV infection of hNPCs (high content screen / inhibitory curve, ZIKV E staining); format: cell-based, Zika virus; conditions: 20 μM Merbromin, 72 h after ZIKV infection
Description: A high content chemical screen identifies compounds that inhibit ZIKV infection of hNPCs. To identify drugs that inhibit ZIKV infection, we screened the Prestwick library that includes 1120 FDA-approved drug and drug candidates, selected for known bioavailability and safety in humans. To perform the screen, hNPCs seeded in 384-well plates were treated with each compound from the library or vehicle control (DMSO) for 1 hour, followed by addition of ZIKV MR766 at a MOI=0.125. After two hour of inoculation with ZIKV, the virus-containing medium was replaced by fresh virus-free medium and compounds were replenished for each well (See Methods). After an additional three days of culture, cells were fixed and stained with antibodies against the ZIKV envelop protein (ZIKV E) and a cell proliferation marker Ki67 (FIG. 1A). The percentages of ZIKV E^+ cells, Ki67^+ cells and total cell number were quantified by an automated imaging and analysis system. A two dimensional analysis was performed to choose the primary hit compounds (FIG. 5A). The X-axis represents the fold change of total cell number, which was calculated by dividing the total cell number of the chemical-treated well by the average total cell number of DMSO-treated wells. The Y-axis represents the fold change of the percentage of ZIKV infected cells, which was calculated by dividing the percentage of cells expressing ZIKV E in each chemical-treated well by the average of the percentage of cells expressing ZIKV E from DMSO-treated wells. […] Based on the fold change of the percentage of ZIKV infection, the signal-to-basal (S/B) ratio is 4.2 and the coefficient of variation (CV) is 6.9%. The Z factor is 0.59 indicating a robust screening system.
hNPCs were plated on 96-well plates at 8.5×10^4/cm^2. After overnight incubation, hNPCs were infected with ZIKV (MR766 strain, MOI=0.125) for 2 h, and changed to virus-free medium. The cells were maintained in NPC medium with daily medium change. Three days later, the supernatant and cells were collected and used for assays. hESC-derived forebrain organoids were infected with ZIKV MR766 (5×10^5 PFU/ml) for 24 h. After removal of virus containing medium, forebrain organoids were maintained in forebrain organoid medium for an additional 3 or 17 days and then used for assays.
High-content Screen. hNPCs were dissociated and plated on Matrigel-coated 384-well plates for the chemical screen. […] DMSO was used as a negative control. ZIKV MR766 was added at MOI=0.125. After 2 hour infection, the supernatant was replaced with fresh medium and compounds from the same chemical library were added to the same wells. After an additional 3 days incubation, cells were fixed, stained with antibodies against ZIKV envelop protein (ZIKV E) and proliferation marker Ki67, and analyzed with the ImageXpress^MICRO Automated High-Content Analysis System. […] X-axis represents the fold change of total cell number, which was calculated by dividing the total cell number of the chemical treated well by the average of total cell number of DMSO treated wells. Y-axis represents the fold change of the percentage of ZIKV infection, which was calculated by dividing the percentage of ZIKV infection of the chemical treated well by the average of the percentage of ZIKV infection of DMSO treated wells. The compounds in which the fold change of total cell number >1 and the fold change of the percentage of ZIKV infection <20% were further evaluated. […]

[2] = tested on: hNPCs; assay: hNPC viability, proliferation, apoptosis and identity; format: cell-based, human; conditions: 20 μM Merbromin, 72 h after ZIKV infection
Description: (A) Scheme of high content chemical screen. (B) Chemical structure of hit compounds. (C) Inhibitory curve and IC50 of HH or AQ on hNPCs (n=6). (D-H) Immunocytochemistry analysis (D), the quantification of the infection rate (E), the quantification of proliferation rate (F), the quantification of cell apoptosis rate (G) and the normalized cell viability (H) of hNPCs at 72 h after ZIKV (MR 766 strain) infection with or without drug treatment. Scale bars, 100 μm. The ZIKV infection rate is defined as the percentage of ZIKV E^+ cells. The proliferation rate is defined as the percentages of Ki67^+ cells. The cell apoptosis rate was defined as the percentage of cleaved-Caspase 3/CAS3^+ cells. The normalized cell viability was calculated by dividing the total cell number of each condition by the total cell number under mock infection conditions. (n=6). (I) qRT-PCR analysis to monitor the total ZIKV vRNA in the supernatant of hNPC cultures at 72 h after ZIKV infection with or without drug treatment. (J) Vero cell reinfection assay to monitor the ZIKV infectious particles in the supernatant of hNPC cultures with or without drug treatment. To perform the Vero cell reinfection assay, hNPCs at 72 h after ZIKV infection were washed three times and changed to drug free medium for an additional 24 h. Vero cells were infected with the supernatant collected from hNPCs for 2 h and changed to virus free medium for an additional 24 h. Vero cells were stained with antibody against ZIKV E and DAPI. Scale bars, 200 μm. (n=3). (K) Quantification of ZIKV infectious particles produced by ZIKV-infected hNPCs with or without compound treatment by the Vero cell reinfection assay. (L) Heatmap analysis of mock-infected hNPCs treated with DMSO (mock); mock infected hNPCs treated with 25 μM HH (HH), mock-infected hNPCs treated with 15 μM AQ (AQ), ZIKV (MR766 strain, MOI=0.125) infected hNPCs treated with DMSO (ZIKV+DMSO); ZIKV-infected hNPCs treated with 25 μM HH (ZIKV+HH), and ZIKV-infected hNPCs treated with 15 μM AQ (ZIKV+AQ). […] (M and N) Immunocytochemistry analysis (M) and quantification of the infection rate (N) of hNPCs at 72 h after ZIKV (PRVABC59 strain) infection with or without drug treatment (n=6). Scale bars, 100 μm. p values were calculated by one-way repeated measures ANOVA with a Bonferroni test for multiple comparisons. *p<0.05, **p<0.01 and ***p<0.001.
(A) Scheme to evaluate the elimination of ZIKV. At day 0, hNPCs were infected with ZIKV for 2 h. After removal of ZIKV infection medium, hNPCs were treated with drug candidates. At day 3, the culture medium was changed to fresh medium without compounds. The cells were maintained in drug-free culture until day 6 and used for immunohistochemistry and qRT-PCR. (B and C) Inhibitory curve and IC50 of HH calculated based on the infection rate (B) and normalized cell viability (C) (n=6). (D and E) Immunocytochemistry analysis (D) and the quantification of infection rate, cell apoptosis rate, and total cell number (E) of hNPCs on day 3 and day 6. Cells was fixed and stained with cleaved Caspase-3 (CAS3), ZIKV E and DAPI. Scale bars, 100 μm. (F) qRT-PCR analysis to monitor the total ZIKV vRNA in the supernatant of hNPC cultures on day 6. Scale bars, 200 μm. (n=3). (G) Vero cell reinfection assay to monitor the infective ZIKV vRNA in the supernatant of hNPC cultures at day 6 after ZIKV infection. Scale bars, 200 μm. (n=3). (H) Quantification of ZIKV infectious particles produced by ZIKV-infected hNPCs at day 6 by the Vero cell reinfection assay. (I) hNPCs with or without ZIKV infection treated with HH maintain hNPC marker expression and differentiation capacity. hNPCs with or without ZIKV MR766 infection were treated with 25 μM HH or DMSO for 3 days and then stained for SOX2, NESTIN and with DAPI. hNPCs with or without ZIKV infection and treated with HH or DMSO for 3 days were differentiated to cortical neurons. The cortical neurons were then fixed and stained for MAP2, TUJ1 and with DAPI. Scale bars, 100 μm. (n=3). […]

Compound: O=C([O-])c1ccccc1-c1c2cc(Br)c(=O)cc-2oc2[c]([Hg+])c([O-])c(Br)cc12.[Na+].[Na+].[OH-] [Merbromin]
- ZIKV infection of hNPCs [1]: did not affect ZIKV infection
- hNPC proliferation in ZIKV infected hNPCs [2]: significantly increased
- total cell loss in ZIKV infected hNPCs [2]: rescued the total cell loss
